In patent US4293483A, “Derivatives of A-30912A nucleus” (priority 1980, dated 1981):
“And” between values parts separate entries of the source, which are not always exact repeats. Equal values may be shown once. Read-outs that look alike come from different tables or passages of the source. Numbered stars: 1 amine (or outer) side, 2 acyl side, 3 side chain; on linkers, the order of the positions; unused ones are H or OH. Bridge positions count the residues as written; N and C are the ends. Square brackets hold non-standard residues; d marks the D form. Peptide text beside a SMILES is read from it. * marks the point of attachment. Orn(4R-OH,5R-OH) = O=C([C@H](C[C@@H](O)[C@@H](O)N[*:3])N[*:1])[*:2]; hTyr(3S-OH,4S-OH) = N[C@H](C(=O)O)[C@H](O)[C@@H](O)c1ccc(O)cc1; Pro(3S-OH,4S-Me) = C[C@H]1CN[C@H](C(=O)O)[C@H]1O; X1 = O=C(c1cc(I)c(N[*:1])c(I)c1)[*:2]; X5 = O=C(c1cc(Cl)cc(N[*:1])c1Cl)[*:2]; Palmitoyl = CCCCCCCCCCCCCCCC(=O)*; Hyp = O=C(O)[C@@H]1C[C@@H](O)CN1; X2 = O=C(Cc1ccc(N[*:1])cc1)[*:2]; X4 = Cc1cc(C(=O)[*:2])ccc1N[*:1]; Myristoyl = CCCCCCCCCCCCCC(=O)*; X3 = O=C(c1cccnc1N[*:1])[*:2]; Lauroyl = CCCCCCCCCCCC(=O)*; 4Abz = Nc1ccc(C(=O)O)cc1

Key:
[1] = system: Trychophyton mentagrophytes #6; experiment: Agar plate disc diffusion test, MIC per disc; format: cell-based; settings: 0.01M sodium borate, pH 7.5, 24 hours at 30° C.
Experimental: (§1) In Table 5, activity is measured by the minimal inhibitory concentration (MIC) of the substance (μg/disc) required to inhibit growth of the test organism.
(§2) *Compounds were suspended in 0.01M sodium borate solution, pH 7.5.
(§3) compounds were tested at 20 μg/disc at top level and at twofold
(§4) dilutions until end points were reached.

Candida albicans A-26 [2] = experiment: Therapeutic activity against Candida albicans A-26 infection in mice; format: in vivo; settings: A26, sc
Experimental: The results of in vivo tests to evaluate the effectiveness of the compound of Examples 61-81, 86 and 88 against an infection caused by Candida albicans A-26 in mice are given in Table 7, where activity is measured by the ED50 value (the dose in mg/kg. required to cure 50% of the test animals). Where an ED50 value was not obtained, activity is indicated by the lowest dose at which a significant anti-fungal effect is observed. In this test, groups of male albino mice (specific pathogen free), weighing 18 to 20 grams, are infected intravenously with Candida albicans A-26. The animals are X-irradiated 24 hours prior to infection at about 50 roentgens per minute for 8 minutes (400 total dose) to reduce immune responses to the infecting organism. At 0, 4, and 24 hours post infection each group of mice is given graded doses subcutaneously of the test compound as a suspension in 33% polyethylene glycol-water. The day of death for each animal is recorded.
*Dosage Schedule: 40, 20, 15, and 10 mg/kg. Dosages given 0, 4, and 24
hours post injection as suspension of test compound in 30% PEGH2 O.
Number of mice receiving test compounds at each dosage level: 6 mice per
group. Number of mice in control (untreated) group: 10 mice per group.
**As measured by increase in survival time of treated animals versus
control, calculated by method of Reed V. Mueuch, American J. Hygiene, 493

[3] = Blood levels after oral administration in mice; settings: for concentration at 4 h: mouse, po, 416 mg/kg
Experimental: (§5) In this test, mice are gavaged with a dose of 416 mg/kg of the test compound suspended in 33% PEG 400-water. At time intervals, blood samples are taken from the orbital sinus and are assayed for antibiotic activity as follows: A 7 mm. disc containing 20 μl of whole blood is placed on agar seeded with Aspergillus montevidensis A35137. After 40 hours incubation at 30° C. zones of inhibition from the blood samples are compared to a standard obtained from the test compound, and the amount of compound in the blood sample is calculated.

Neurospora Crassa 846 = experiment: Agar plate disc diffusion test, zone of inhibition; format: cell-based; settings: Neurospora crassa, 1 mg/ml, 7 mm disc, * measurable zone of inhibition with regrowth of organism around disc
Experimental: (§6) ^(a) Compounds were tested as suspension in methanol.
(§7) were tested at a concentration of 1 mg/ml by a dipping 7mm disc into the
(§8) suspension and placing it on the agar surface. Incubation: 24-48 hours at

[4] = system: Saccharomyces pastorianus X-52; experiment: Agar plate disc diffusion test, zone of inhibition; format: cell-based; settings: Saccharomyces pastorianus, X52, 48 h, 1 mg/ml suspension in methanol, 7 mm disc, 24-48 hours at 25-37° C.
Experimental: as §6, §7, §8

[5] = system: Trichophyton mentagrophytes; experiment: Agar plate disc diffusion test, zone of inhibition; format: cell-based; settings: 7 mm disc
Experimental: as §6, §7, §8

Candida albicans A-26 [6] = experiment: Agar plate disc diffusion test, MIC per disc; format: cell-based; settings: 0.01M sodium borate, pH 7.5, 24 hours at 30° C.
Experimental: as §1, §2, §3, §4

Candida albicans A-26 [7] = experiment: Agar plate disc diffusion test, zone of inhibition; format: cell-based; settings: 1 mg/ml suspension in methanol, 7 mm disc, 24-48 hours at 25-37° C., no regrowth mark
Experimental: as §6, §7, §8

in vivo = settings: mouse, po, 416 mg/kg
Experimental: as §5

[8] = mouse, in vivo, 416 mg/kg, 240 min
Experimental: as §5

[9] = read-out: Lowest Active Dose, subcutaneous at 0, 4 and 24 hours post infection, lowest dose with significant anti-fungal effect
[10] = CRASSA846, Neurospora Crassa 846, read-out: Size of Zone of Inhibition (*)
[11] = Saccharomyces pastorianus X-52, read-out: Size of Zone of Inhibition
[12] = 1 mg/ml, * measurable zone of inhibition with regrowth of organism around disc, read-out: Size of Zone of Inhibition (*)
[13] = subcutaneous at 0, 4 and 24 hours post infection, dose to cure 50% of test animals, by increase in survival time, read-out: ED50
[14] = subcutaneous at 0, 4 and 24 hours post infection, lowest dose with significant anti-fungal effect, read-out: Lowest Active Dose

Row | concentration at 4 h (in vivo) [ng/mL] | Blood Levels [8] [ng/mL] | Compound | MIC [1] [μg/disc] | ED50 (Candida albicans A-26 [2]) [mg/kg] | minimal effective dose (Candida albicans A-26 [2]; [9]) [mg/kg] | concentration at 4 h ([3]; blood) [ng/mL] | zone of inhibition at 1000 µg/mL (Neurospora Crassa 846; [10]) [mm] | zone of inhibition at 1000 µg/mL [4, 11] [mm] | zone of inhibition at 1000 µg/mL [5, 12] [mm] | MIC (Candida albicans A-26 [6]) | Size of Zone of Inhibition (Candida albicans A-26 [7]) [mm] | ED50 (Candida albicans A-26 [2]; [13]) [mg/kg] | minimal effective dose (Candida albicans A-26 [2]; [14]) [mg/kg] | zone of inhibition at 1000 µg/mL ([5]; 48 h, 1 mg/ml suspension in methanol, 24-48 hours at 25-37° C., no regrowth mark, read-out: Size of Zone of Inhibition) [mm] | concentration at 4 h ([3]; in vivo) [ng/mL] | zone of inhibition at 1000 µg/mL (Neurospora Crassa 846; CRASSA846, read-out: Size of Zone of Inhibition (*), Neurospora Crassa 846) [mm] | zone of inhibition at 1000 µg/mL ([4]; read-out: Size of Zone of Inhibition, Saccharomyces pastorianus X-52) [mm] | Blood Levels ([3]; mice, 416 mg/kg by gavage in 33% PEG 400-water, four hours after administration, bioassay vs. Aspergillus montevidensis A35137) [ng/mL]
1 | – | – | CCCCCCCCCCCC(=O)Nc1cc(Cl)cc(C(=O)N[C@H]2C[C@@H](O)[C@@H](O)NC(=O)[C@@H]3[C@@H](O)[C@@H](C)CN3C(=O)[C@H]([C@@H](C)O)NC(=O)[C@H]([C@H](O)[C@@H](O)c3ccc(O)cc3)NC(=O)[C@@H]3C[C@@H](O)CN3C(=O)[C@H]([C@@H](C)O)NC2=O)c1Cl [Example 67] (Lauroyl-[X5][Orn(4R-OH,5R-OH)]T[Hyp][hTyr(3S-OH,4S-OH)]T[Pro(3S-OH,4S-Me)]; lactam 2-C) | < 0.039 | 14 | 10 | 530 | 35 | 19 | 44 | 0.625 μg/disc | 27 | – | – | – | – | – | – | –
2 | 340 | – | CCCCCCCCCCCC(=O)Nc1c(I)cc(C(=O)N[C@H]2C[C@@H](O)[C@@H](O)NC(=O)[C@@H]3[C@@H](O)[C@@H](C)CN3C(=O)[C@H]([C@@H](C)O)NC(=O)[C@H]([C@H](O)[C@@H](O)c3ccc(O)cc3)NC(=O)[C@@H]3C[C@@H](O)CN3C(=O)[C@H]([C@@H](C)O)NC2=O)cc1I [Example 68] (Lauroyl-[X1][Orn(4R-OH,5R-OH)]T[Hyp][hTyr(3S-OH,4S-OH)]T[Pro(3S-OH,4S-Me)]; lactam 2-C) | 0.078 | – | – | – | 30 | 17 | – | 1.25 μg/disc | 25 | > 40 | 40 | 60 | – | – | – | –
3 | – | 0 | CCCCCCCCCCCC(=O)Nc1ccc(C(=O)N[C@H]2C[C@@H](O)[C@@H](O)NC(=O)[C@@H]3[C@@H](O)[C@@H](C)CN3C(=O)[C@H]([C@@H](C)O)NC(=O)[C@H]([C@H](O)[C@@H](O)c3ccc(O)cc3)NC(=O)[C@@H]3C[C@@H](O)CN3C(=O)[C@H]([C@@H](C)O)NC2=O)cc1C [Example 70] (Lauroyl-[X4][Orn(4R-OH,5R-OH)]T[Hyp][hTyr(3S-OH,4S-OH)]T[Pro(3S-OH,4S-Me)]; lactam 2-C) | < 0.039 | – | – | – | 25 | 19 | 45 | 20 μg/disc | 26 | > 40 | > 40 | – | – | – | – | –
4 | 340 | – | CCCCCCCCCCCC(=O)Nc1ccc(CC(=O)N[C@H]2C[C@@H](O)[C@@H](O)NC(=O)[C@@H]3[C@@H](O)[C@@H](C)CN3C(=O)[C@H]([C@@H](C)O)NC(=O)[C@H]([C@H](O)[C@@H](O)c3ccc(O)cc3)NC(=O)[C@@H]3C[C@@H](O)CN3C(=O)[C@H]([C@@H](C)O)NC2=O)cc1 [Example 72] (Lauroyl-[X2][Orn(4R-OH,5R-OH)]T[Hyp][hTyr(3S-OH,4S-OH)]T[Pro(3S-OH,4S-Me)]; lactam 2-C) | 0.078 | – | – | – | 30 | 20 | 55 | 2.5 μg/disc | 19 | > 40 | 40 | – | – | – | – | –
5 | – | – | CCCCCCCCCCCC(=O)Nc1ccc(C(=O)NCC(=O)N[C@H]2C[C@@H](O)[C@@H](O)NC(=O)[C@@H]3[C@@H](O)[C@@H](C)CN3C(=O)[C@H]([C@@H](C)O)NC(=O)[C@H]([C@H](O)[C@@H](O)c3ccc(O)cc3)NC(=O)[C@@H]3C[C@@H](O)CN3C(=O)[C@H]([C@@H](C)O)NC2=O)cc1 [Example 74] ({Lauroyl-4Abz}-G[Orn(4R-OH,5R-OH)]T[Hyp][hTyr(3S-OH,4S-OH)]T[Pro(3S-OH,4S-Me)]; lactam 2-C) | 0.078 | > 40 | > 40 | – | – | – | – | 10 μg/disc | 15 | – | – | – | 640 | 28 | 13 | –
6 | – | 0 | CCCCCCCCCCCC(=O)Nc1ncccc1C(=O)N[C@H]1C[C@@H](O)[C@@H](O)NC(=O)[C@@H]2[C@@H](O)[C@@H](C)CN2C(=O)[C@H]([C@@H](C)O)NC(=O)[C@H]([C@H](O)[C@@H](O)c2ccc(O)cc2)NC(=O)[C@@H]2C[C@@H](O)CN2C(=O)[C@H]([C@@H](C)O)NC1=O [Example 75] (Lauroyl-[X3][Orn(4R-OH,5R-OH)]T[Hyp][hTyr(3S-OH,4S-OH)]T[Pro(3S-OH,4S-Me)]; lactam 2-C) | 0.078 | – | – | – | 30 | 14 | 54 | 2.5 μg/disc | 24 | > 40 | > 40 | – | – | – | – | –
7 | – | – | CC(=O)Nc1ccc(C(=O)N[C@H]2C[C@@H](O)[C@@H](O)NC(=O)[C@@H]3[C@@H](O)[C@@H](C)CN3C(=O)[C@H]([C@@H](C)O)NC(=O)[C@H]([C@H](O)[C@@H](O)c3ccc(O)cc3)NC(=O)[C@@H]3C[C@@H](O)CN3C(=O)[C@H]([C@@H](C)O)NC2=O)cc1 [Example 77] (Ac-[4Abz][Orn(4R-OH,5R-OH)]T[Hyp][hTyr(3S-OH,4S-OH)]T[Pro(3S-OH,4S-Me)]; lactam 2-C) | 0.312 | > 40 | > 40 | – | 24 | 17 | 51 | > 20 μg/disc and 40 μg/disc | 24 | – | – | – | – | – | – | 0
8 | – | – | CCCCCCCCCCCCCC(=O)Nc1ccc(C(=O)N[C@H]2C[C@@H](O)[C@@H](O)NC(=O)[C@@H]3[C@@H](O)[C@@H](C)CN3C(=O)[C@H]([C@@H](C)O)NC(=O)[C@H]([C@H](O)[C@@H](O)c3ccc(O)cc3)NC(=O)[C@@H]3C[C@@H](O)CN3C(=O)[C@H]([C@@H](C)O)NC2=O)cc1 [Example 80] ({Myristoyl-4Abz}-[Orn(4R-OH,5R-OH)]T[Hyp][hTyr(3S-OH,4S-OH)]T[Pro(3S-OH,4S-Me)]; lactam 1-C) | < 0.039 | 11 | 2.5 | 6500 | – | 17 | – | 1.25 μg/disc | 22 | – | – | – | – | – | – | –
9 | – | – | CCCCCCCCCCCCCCCC(=O)Nc1ccc(C(=O)N[C@H]2C[C@@H](O)[C@@H](O)NC(=O)[C@@H]3[C@@H](O)[C@@H](C)CN3C(=O)[C@H]([C@@H](C)O)NC(=O)[C@H]([C@H](O)[C@@H](O)c3ccc(O)cc3)NC(=O)[C@@H]3C[C@@H](O)CN3C(=O)[C@H]([C@@H](C)O)NC2=O)cc1 [Example 81] ({Palmitoyl-4Abz}-[Orn(4R-OH,5R-OH)]T[Hyp][hTyr(3S-OH,4S-OH)]T[Pro(3S-OH,4S-Me)]; lactam 1-C) | < 0.039 | 7 | 5 | 36000 | – | 24 | – | 0.312 μg/disc | 25 | – | – | – | – | – | – | –
